What is called IC50 is the concentration that inhibits the measured activity by half.

We go through 49 compounds from PubChem BioAssay AID788 (SRMLSC, 2007).

The source made the active and inactive calls. How the calls were made is not given here.

Assay [1] concerns S. cerevisiae wild-type background strain growth inhibition. Briefly: vps1Δ apl2Δ double mutant yeast growth inhibitors – S. cerevisiae, background strain comparison, post-Golgi transport modulator project, dose response (AID 788). To be noted: S. cerevisiae vps1Δ apl2Δ growth inhibition, dose response; measured here: wild-type background strain growth.
Assay [2] deals with S. cerevisiae vps1Δ apl2Δ growth inhibition, dose response. The assay is described as above.

As to `O=C(Nc1nnc(-c2ccc3c(c2)CCCC3)o1)c1ccccc1Cl`, the IC50 in assay [1] is 10.7 µM; in assay [2], 14.6 µM (inactive).
`CN1/C(=C/C2CC(=O)NC2=O)C(C)(C)c2ccccc21` (stereo not drawn): the IC50 in assay [1] was more than 10 µM; in assay [2], > 10 µM (inactive).
The matching figures for `N#Cc1cn(-c2ccccc2)nc1-c1cc2ccccc2oc1=O`: more than 10 µM and > 10 µM (inactive).
As for `O=C(NC1CCCC1)C(c1ccsc1)N(C(=O)Cc1cccs1)c1ccc(F)cc1` (stereo not drawn), the results for the 50% inhibitory concentration (IC50) in assay [1] and in assay [2] were more than 10 µM and > 10 µM (inactive), respectively.
On to `O=S(=O)(c1ccc(Cl)cc1)N1CCN(C2CCN(Cc3ccccc3)CC2)CC1`, for which the IC50 in assay [1] was more than 10 µM; in assay [2], 5.15 µM.
On to `Cc1ccc(S(=O)(=O)N2CC3CC(C2)c2cccc(=O)n2C3)cc1` (stereo not drawn), for which the IC50 was more than 10 µM in assay [1] and > 10 µM (inactive) in assay [2].
For `CCC(=O)c1ccc(N2CCN(C(=O)c3ccc(Br)cc3)CC2)c(F)c1`, the IC50 in assay [1] was more than 10 µM; in assay [2], 25 µM.
As for `Cc1ccc(SC(=O)COc2ccc(C)c(C)c2)cc1`, the 50% inhibitory concentration (IC50) is more than 10 µM in assay [1] and > 10 µM (inactive) in assay [2].
For the compound `COc1cc(CN2CCN(c3ccc(C)cc3)CC2)cc([N+](=O)[O-])c1O`, the IC50 in assay [1] was more than 10 µM; in assay [2] it was > 10 µM (inactive).
Turning to `CCn1c(SCC(=O)N2CCCc3ccccc32)nnc1-c1ccco1`, the IC50 is more than 10 µM in assay [1] and > 10 µM (inactive) in assay [2].
Turning to `O=C(NCC(=O)N(c1cccnc1)C(C(=O)NCc1ccco1)c1ccccc1)c1ccco1` (stereo not drawn), the results for the IC50 in assay [1] and in assay [2] were more than 10 µM and > 10 µM (inactive), respectively.
With `Cc1ccc(-c2csc3nnc(SCC(=O)Nc4cccc(C)n4)n23)cc1`, the figures for the IC50 in assay [1] and in assay [2] were more than 10 µM and > 10 µM (inactive), respectively.
In the case of `CC1CCCCN1CCNC(=O)Cn1nc(-c2ccccc2)ccc1=O` (stereo not drawn), the 50% inhibitory concentration (IC50) in assay [1] is more than 10 µM; in assay [2], > 10 µM (inactive).
Take `O=C(O)c1ccc(N2CCCCC2)cc1`: the IC50 in assay [1] is more than 10 µM; in assay [2] it was > 10 µM (inactive).
Take `CCCCCCCCNc1ncnc2ccccc12`: the IC50 was 14.8 µM in assay [1] and > 10 µM (inactive) in assay [2].
Taken in the same sequence, the figures for `Cc1ccnc(N2C(=O)c3cccc4c([N+](=O)[O-])ccc(c34)C2=O)c1` were 4.22 µM and 5.37 µM (inactive).
Consider `COc1ccc(C2=NC(C(F)(F)F)(C(F)(F)F)c3c(n(C)c(=O)n(C)c3=O)N2)cc1`, for which the IC50 in assay [1] is more than 10 µM; in assay [2], > 10 µM (inactive).
Regarding `N#Cc1nc(COc2ccc(-c3ccccc3)cc2)oc1NCCCN1CCOCC1`, the IC50 in assay [1] is 15.4 µM; in assay [2] it was 13.8 µM.
Turning to `Cc1cc(=O)[nH]c(SCC(=O)c2ccc(C)c(C)c2)n1`, the IC50 in assay [1] was 2.31 µM; in assay [2] it was 2.13 µM.
Regarding `CCOC(=O)C1CCN(Cc2cnc(Oc3ccc(Cl)cc3C)s2)CC1`, the IC50 is more than 10 µM in assay [1] and 26 µM in assay [2].
Taken in the same sequence, the figures for `CCc1ccc(C(=O)/C=C/c2ccc([N+](=O)[O-])o2)cc1` were 20.7 µM and 23.1 µM (inactive).
On to `Cc1ccc2nc(C)cc(OCC(=O)O)c2c1`, for which the IC50 in assay [1] was more than 10 µM; in assay [2] it was > 10 µM (inactive).
For `CC(NC(=O)CSc1nc2c(cc1C#N)CN(C)CC2)c1ccccc1` (stereo not drawn), the IC50 in assay [1] was more than 10 µM; in assay [2] it was > 10 µM (inactive).
Consider `OC(COCc1ccc(Cl)cc1)CN1CC=C(c2ccccc2)CC1` (stereo not drawn), for which the IC50 in assay [1] was 20.8 µM; in assay [2], 4.71 µM.
Taken in the same sequence, the figures for `CCOC(=O)COc1ccccc1C1Nc2ccccc2C(=O)N1c1cccc(Cl)c1` (stereo not drawn) were more than 10 µM and 19.3 µM.
`CC(=O)c1cnc2nc(C)nn2c1C`: the results for the IC50 in assay [1] and in assay [2] were more than 10 µM and > 10 µM (inactive), respectively.
Take `CC(C)COC(=O)c1ccc2c(c1O)C(=O)c1ccccc1C2=O`: the IC50 was more than 10 µM in assay [1] and > 10 µM (inactive) in assay [2].
As for `Nc1ccc(Oc2ccc3nc(-c4ccccc4)c(-c4ccccc4)nc3c2)cc1`, the IC50 was 1.21 µM in assay [1] and 1.2 µM (inactive) in assay [2].
For the compound `O=C(NC(C(=O)c1ccccc1)N1CCCCC1)c1ccccc1` (stereo not drawn), the IC50 in assay [1] was more than 10 µM; in assay [2], > 10 µM (inactive).
For the compound `O=C(c1ccco1)N1CCN(c2ncnc3c2[nH]c2ccccc23)CC1`, the figures for the IC50 in assay [1] and in assay [2] were more than 10 µM and > 10 µM (inactive), respectively.
Take `C/C(CCC12CC3CC(CC(C3)C1)C2)=N\NC(N)=S`: the IC50 was 5.28 µM in assay [1] and 1.65 µM in assay [2].
Taken in the same sequence, the figures for `CC1CCCN(CCOCCOc2ccc(Cl)cc2Br)C1` (stereo not drawn) were more than 10 µM and 2.5 µM.
Taken in the same sequence, the figures for `Cc1cc(C)nc(NC(=O)CSc2nn(C)c(=S)s2)n1` were more than 10 µM and > 10 µM (inactive).
Taken in the same sequence, the figures for `CCOc1ccc(-c2[nH]ncc2Oc2ccccc2OCC)c(O)c1` were 16 µM and 7.98 µM.
With `O=c1c2c3c(sc2ncn1/N=C/c1ccc([N+](=O)[O-])o1)CCCC3`, the IC50 in assay [1] was 1.59 µM; in assay [2], 1.8 µM (inactive).
For `Cc1nnc(-c2cccc(Br)c2)c2cn(-c3ccccc3Cl)nc12`, the IC50 was 25.9 µM in assay [1] and 2.73 µM in assay [2].
In the case of `Cc1ccc(CSc2nc3ccccc3cc2C=O)cc1`, the IC50 in assay [1] is 2.1 µM; in assay [2], 2.37 µM (inactive).
With `Cc1cc(Cl)cc(C)c1OCCCCN1CCOCC1`, the values for the half-inhibitory concentration (IC50) in assay [1] and in assay [2] were more than 10 µM and > 10 µM (inactive), respectively.
Turning to `COc1ccc(Cl)cc1NC(=O)C(C)N1CCN(C/C=C/c2ccccc2)CC1` (stereo not drawn), the IC50 is 15 µM in assay [1] and 9.01 µM in assay [2].
Taken in the same sequence, the figures for `NC(=O)c1ccsc1NC(=O)c1nc(-c2ccccc2)n(-c2ccccc2)n1` were more than 10 µM and > 10 µM (inactive).
On to `CCCCOc1ccc(-c2ncc(C(=O)O)c(C)n2)cc1`, for which the IC50 in assay [1] is more than 10 µM; in assay [2] it was > 10 µM (inactive).
For `CCOC(=O)N1CCN(c2ccc(S(=O)(=O)N(Cc3ccccc3)Cc3ccccc3)cn2)CC1`, the IC50 in assay [1] was more than 10 µM; in assay [2], > 10 µM (inactive).
Regarding `Cc1cccc(-c2c3c(=O)n(C)c(=O)n(C)c3cn2C2CCCCC2)c1`, the IC50 was more than 10 µM in assay [1] and > 10 µM (inactive) in assay [2].
The matching figures for `CCCn1nc([N+](=O)[O-])c(C(C#N)c2nc3ccccc3s2)c(Cl)c1=O` (stereo not drawn): 2.16 µM and 5.34 µM (inactive).
With `Cc1ccc(NS(=O)(=O)c2cc(C(=O)N3CCOCC3)ccc2C)cc1`, the IC50 in assay [1] was more than 10 µM; in assay [2] it was > 10 µM (inactive).
On to `O=C(NCCc1ccccc1)C1CCN(S(=O)(=O)N2CCCC2)CC1`, for which the IC50 in assay [1] is more than 10 µM; in assay [2], > 10 µM (inactive).
Consider `CCCCSCCCNC(=O)Nc1cccc(OC)c1`, for which the IC50 is more than 10 µM in assay [1] and > 10 µM (inactive) in assay [2].
With `CCOC(=O)c1cc2c(ccn2C)n1CC(=O)N1CCN(c2ccccc2OC)CC1`, the figures for the IC50 in assay [1] and in assay [2] were more than 10 µM and > 10 µM (inactive), respectively.
Consider `CSc1ncccc1C(=O)OCC(=O)N1CCOCC1`, for which the half-inhibitory concentration (IC50) in assay [1] is more than 10 µM; in assay [2] it was > 10 µM (inactive).
